Data: article PMC8476547, “Epigenetic derepression converts PPARγ into a druggable target in triple-negative and endocrine-resistant breast cancers” (Cell Death Discovery, 2021)

How the values were obtained:
MDA-MB-231 CAM tumor = assay: Chick chorioallantoic membrane (CAM) tumor vascularization, ultrasound imaging; format: in vivo; conditions: single treatments, 48 h
Procedure: On Embryonic Day 3, a sharp weighted tool was used to poke a hole at the apex of the eggshell, and 3 mL of albumin was removed using a 5 ml syringe and 18G needle in order to drop the chick chorioallantoic membrane (CAM). The sharp-weighted tool was then used to poke a hole in the middle of the egg before using curved scissors to cut a 1cm2 hole. The eggs were screened, and dead embryos were removed.
On Embryonic Day 7, MDA-MB-231 cells were prepared for inoculation onto the CAM. DMEM was aspirated, cells were washed with PBS before the addition of 1 ml of 2.5 g/l Trypsin/EDTA solution onto the culture dish. The cells were then removed into a 15 ml Falcon tube and centrifuged for 3 min at 1200 rpm, before the supernatant was removed. Matrigel was added to the cell pellet on ice to resuspend the pellet, before the addition of 2 × 10^6 cells in a 50 µl of Matrigel-cell mixture onto CAM. […]
On Embryonic Day 10, the Tegaderm membrane was removed and Aquasonic gel was added onto the cling wrap which was carefully placed over the CAM. […] Tumor volumes and percentage vasculature were calculated by the Vevo Lab 1.7.0 programme.
Twenty microliters of single or combination treatments of LBH589 and rosiglitazone were added onto a 3.5 mm diameter autoclaved filter paper placed next to the formed tumor on the CAM. […] Percentage changes were calculated based on before and after drug treatment.

PPARγ [1] = assay: PPRE-luciferase reporter assay (PPARγ activity); format: cell-based, human; conditions: MCF7, T47D, MDA-MB-231 and BT549 cells; 0, 50, 100 nM LBH589, 16 h
Text: We took advantage of the fact that downstream genes targeted by this transcription factor contain peroxisome proliferator response elements (PPRE), where it binds. […] To provide assurance that the enhanced bioluminescence is attributable to PPARγ receptor activation rather than some off-target consequence of pan-HDAC inhibition, we repeated the luciferase assays but modified the experiments to eliminate the contribution of PPARγ (Supplementary Results: Part S2).

PPARγ [2] = assay: Immunoprecipitation of FLAG-tagged PPARγ, acetyl-lysine immunoblot; format: cell-based, human; conditions: MCF7 cells, 50 nM LBH589, first hour; overall FLAG-tagged PPARγ unchanged
Procedure: For detection of acetylation of PPARγ, immunoprecipitation with PPARγ was performed. Cells were seeded at […] density and transfected with FLAG-tagged PPARγ before treatment with LBH589. Cells were harvested and cell pellets were lysed in immunoprecipitation (IP) lysis buffer (pH 8). Two hundred and fifty micrograms of proteins were pre-cleared with magnetic G beads (Millipore, Bedford, MA) for 1 h before rotating with 1 μg of FLAG antibody or normal rabbit IgG overnight at 4 °C. Magnetic G beads were added to the mixture the next day and rotated for 1.5 h. Magnetic-enriched IP samples were washed four times in cold wash buffer (200 mM Tris [pH 8.0], 100 mM NaCl, 0.5% NP-40, 2 mM DTT, 0.5 mM PMSF, 1 mM sodium orthovanadate, 1 μg/ml leupeptin, and 1 μg/ml aprotinin) at 10 min intervals. Samples were then boiled in 5× SDS loading buffer and subjected to SDS-PAGE. Proteins were then transferred to PVDF membranes and detected for acetyl-lysine.

PPARγ [3] = assay: PPARγ mRNA and protein expression (RT-PCR, western blot); format: cell-based, human; conditions: MCF7 and MDA-MB-231, 50 nM LBH589, from the 3 h mark to 18 h
Procedure: Total RNA was isolated from cells using TRIZOL reagent (Invitrogen, Carlsbad, CA, USA), as described in the manufacturer’s instructions with a DNAse treatment step incorporated into the protocol. Each RT reaction contained 2.5 µg of total RNA, 1× RT buffer, 5 mM MgCl2, 425 µM each of dNTPs, 2 µM random hexamers, 0.35U/µl RNase inhibitor, and 1.1U/µl MultiScribe™ reverse transcriptase and made up to 10 µl with sterile water. The RT reaction was carried out at 37 °C for 1 h. Five microlitres of the 10 µl cDNA reaction volume were used in real-time quantitative PCR using ABI PRISM 7500 (Applied Biosystems, Foster City, CA, USA). Normalization was endogenous 18S. Fluorescence was measured with the Sequence Detection Systems 2.0 software. PCR was performed in multiplex (both target and endogenous control co-amplified in the same reaction) with distinct fluorescent dyes. Primers and probes for human 18S, human PPARγ, BIRC5, CyclinD1, VEGFA, and MnSOD were purchased from Applied Biosystems (Assays on Demand).

ERα = ERα receptor expression (western blot); format: cell-based, human; conditions: ER-positive cell lines MCF7 and T47D
[4] = mouse, in vivo, ip, 7.5 mg/kg
Procedure: (§1) A total of 39 mice were randomly assigned to 5 treatment groups with at least 7 animals in each group. Mice were treated with vehicle (10% DMSO), 2.5 mg/kg or 7.5 mg/kg of LBH589, 10 mg/kg, or 20 mg/kg of Rosiglitazone via i.p. injection five days per week. The animals were evaluated for changes in clinical signs (stooling, activity level, and body weight). Bodyweight was measured prior to dosing and mice were monitored regularly for any signs of distress after drug administration. All mice were humanely euthanized after 24 days.

[5] = tested on: luciferase-labeled, triple-negative MDA-MB-231 cells; assay: Orthotopic mammary fat pad xenograft, bioluminescent tumor burden; format: in vivo, mouse; conditions: day 28; LBH589 2.5 mg/kg, rosiglitazone 10 mg/kg or both, i.p. five days per week for four weeks; control 9.9 ± 6.2
Procedure: Female NCr nude mice (CrTac:NCr-Foxn1nu) aged 7 weeks were purchased from InVivos, Singapore. […] Mice were acclimatized to laboratory conditions for a minimum of 3 days prior to study initiation. All surgical procedures were performed under strict aseptic conditions according to the protocol approved by the SingHealth Institutional Animal Care and Use Committee (IACUC). […] A 1-cm incision was made at the abdominal mammary fat pad area. […] The incision was closed with wound clips (Stoelting Co, USA). To relieve post-surgical pain and prevent dehydration following surgery, 1 ml of 2 mg/ml meloxicam (Troy Ilium, Australia), diluted in 0.9% saline (B. Braun, Germany) was administered subcutaneously at the right flank of mice after surgery. Mice were recovered on a heating pad until fully awake from anesthesia before being returned to cages. Tumor growth was screened by imaging from the ventral view using the Xenogen IVIS system (Caliper Life Sciences, CA, USA). […] Bioluminescent signals around the tumor sites were identified and quantified as total photon counts using Living Image 4.2 software (Xenogen). […] The bodyweight of mice was measured prior to drug administration. Tumor growth was monitored twice a week using the Xenogen IVIS system throughout the entire 28 days of treatment. […]

Cellular IC50 of LBH589 = format: cell-based
[6] = tested on: untransformed human breast epithelial cell lines MCF10A and MCF12A; assay: PPARγ expression, activity and cell viability in normal breast epithelial cells; conditions: 0, 50, 100 nM LBH589, 24 h
Procedure: Whole-cell lysates were prepared with RIPA lysis buffer containing 10 mM Tris-HCL pH7.4, 30 mM NaCl, 1 mM EDTA, 1% Nonidet P-40, supplemented with 1 mM sodium orthovanadate (Na3VO4), 1 µg/ml leupeptin, 1 µg/ml pepstatin A, 1 µg/ml aprotinin, and 1 mM PMSF before use. […] Thereafter, proteins were transferred onto nitrocellulose membranes, blocked for 1 h at room temperature with 5% non-fat milk, and incubated overnight at 4 °C with the primary antibody. After probing with a secondary antibody for 1 h at 25 °C, protein bands were detected by using the Supersignal West Pico Chemiluminescent substrate kit. β-actin antibody was used as a loading control.
The luciferase reporter construct used was pPPRE-tk-Luc, which contains three PPREs from the rat acyl-CoA oxidase promoter under the control of the Herpes simplex virus thymidine kinase promoter (kind gift from Dr. Ronald M. Evans, The Salk Institute for Biological Studies, San Diego, CA, USA). 3× PPRE promoter activities were assessed with a dual-luciferase assay kit. […] Ten microlitres of cell lysate were then added to 50 μl of the luciferase substrate solution, following which 50 μl of stop and glow buffer was added for Renilla reading. Bioluminescence generated was measured using a Sirius luminometer (Berthold, Munich, Germany). The luminescence readings obtained were normalized to the protein content of the corresponding cell lysate. […]

[7] = Toxicity study in NCr nude mice; conditions: LBH589 2.5 or 7.5 mg/kg, rosiglitazone 10 or 20 mg/kg, i.p. five days per week, three-week cycle
Procedure: as §1

Row | SMILES | CAM tumor volume / tumor size compared to DMSO control (MDA-MB-231 CAM tumor) | changes in CAM vascular volumes compared to DMSO (MDA-MB-231 CAM tumor) | PPRE-luciferase reporter activity (PPARγ [1]) | acetylated PPARγ (PPARγ [2]) | intracellular PPARγ mRNA and protein (PPARγ [3]) | ERα receptor expression (ERα) | clinical signs (weight gain, stooling) compared to lower dosage or placebo [4] | relative tumor burden (fold change in bioluminescent signal normalized to pre-treatment radiance levels) [5] | IC50 (Cellular IC50 of LBH589) | PPARγ expression and activity [6] | loss of original bodyweight [7]
1 | Cc1[nH]c2ccccc2c1CCNCc1ccc(/C=C/C(=O)NO)cc1 [LBH589] | did not have any significant effects | No significant changes | dose-dependently enhanced | marked initial accumulation | steady and gradual rise | dose-dependently suppressed | less weight gain and softer stools | 5.8 ± 3.7 fold | 50 nM | did not upregulate PPARγ expression or augment its activity | –
2 | CN(CCOc1ccc(CC2SC(=O)NC2=O)cc1)c1ccccn1 (stereo not drawn) [rosiglitazone] | – | – | – | – | – | – | – | 5.3 ± 0.8 fold | – | – | ≤ 10%
